{"source": "patent US4681699A", "about": "“Bisazo dyes and their use in liquid crystalline materials” (BASF Aktiengesellschaft, priority 1984, dated 1987)", "key": {"[1]": {"experiment": "Solubility L of dye in liquid crystal mixture at room temperature (saturated solution, comparison of extinctions)", "assay_type": "physicochemical", "description": "(§1) The degree of order S measured at room temperature, the solubility L likewise determined at room temperature, and the Merck liquid crystal mixtures used are summarized in Table 1 for Examples 1, 4, 5, 8, 12, 15 and 18.\n(§2) The values for the degree of order and the solubility which have been measured at room temperature in ZLI 2452 are summarized in Table 2 for some of the Examples 19-46.\nThe solubility was determined as described below. 50 mg of the particular dye was stirred for 1 week at room temperature in 1 ml of liquid crystal, the saturated solution was centrifuged off from the residue, and the solubility was determined by comparison of extinctions."}, "[2]": {"experiment": "Degree of order S of dye in nematic liquid crystal mixture (dichroic ratio CR, homogeneously oriented measuring cell)", "assay_type": "physicochemical", "description": "as §1, §2\nThe degree of order S was determined on the basis of the known equation [formula] in a commercial measuring cell with a homogeneous orientation (polyimide).The dichroic ratio CR was determined by measuring the extinctions E^.parallel. (measured with light polarized parallel to the preferred direction of the nematic phase) and E^.perp. (measured with light polarized perpendicular to the preferred direction of the nematic phase) and using the relationship CR=E^.parallel. /E^.perp., the dye concentrations being chosen so that E^.parallel. was from 1 to 2. The measurements were carried out using an Acta CIII spectrophotometer from Beckmann."}, "[3]": {"conditions": "liquid crystal mixture ZLI 1840"}, "[4]": {"conditions": "liquid crystal mixture ZLI 1957/5"}, "[5]": {"conditions": "liquid crystal mixture ZLI 2452 (Table 1)"}, "[6]": {"conditions": "liquid crystal mixture ZLI 2585"}}}
{"compound": "CCNc1ccc(N=Nc2cc(C)c(N=Nc3nc(SC)ns3)cc2C)c2ccccc12", "note": "[Example 12]", "values": [{"measurement": "Solubility L (at room temperature)", "setting": "[1]; [3]", "value": 0.7, "unit": "%"}, {"measurement": "Degree of order S (at room temperature)", "setting": "[2]; [3]", "value": 0.72}]}
{"compound": "CCCCC1CCC(c2ccc(CNc3ccc(N=Nc4ccc(N=Nc5nc(SCC(CC)CCCC)ns5)c(C)c4)c4ccccc34)cc2)CC1", "note": "(stereo not drawn) [Example 45]", "values": [{"measurement": "Solubility L (at room temperature)", "setting": "[1]; ZLI 2452 (Table 2)", "value": 2.4, "unit": "%"}, {"measurement": "Degree of order S (at room temperature)", "setting": "[2]; ZLI 2452 (Table 2)", "value": 0.81}]}
{"compound": "CCCCCCCCCCCCNc1ccc(N=Nc2cc(C)c(N=Nc3nc(SCCCCCCC)ns3)cc2C)c2ccccc12", "note": "[Example 35]", "values": [{"measurement": "Solubility L (at room temperature)", "setting": "[1]; ZLI 2452 (Table 2)", "value": 0.6, "unit": "%"}, {"measurement": "Degree of order S (at room temperature)", "setting": "[2]; ZLI 2452 (Table 2)", "value": 0.79}]}
{"compound": "CCCCCCCCSc1nsc(N=Nc2ccc(N=Nc3ccc(N(C)CCCC)cc3)cc2)n1", "note": "[Example 1]", "values": [{"measurement": "Solubility L (at room temperature)", "setting": "[1]; [4]", "value": 1.5, "unit": "%"}, {"measurement": "Degree of order S (at room temperature)", "setting": "[2]; [4]", "value": 0.72}]}
{"compound": "CCCCC(CC)CSc1nsc(N=Nc2cc(C)c(N=Nc3ccc(NCC)c4ccccc34)cc2C)n1", "note": "(stereo not drawn) [Example 38]", "values": [{"measurement": "Solubility L (at room temperature)", "setting": "[1]; ZLI 2452 (Table 2)", "value": "> 5", "unit": "%"}, {"measurement": "Degree of order S (at room temperature)", "setting": "[2]; ZLI 2452 (Table 2)", "value": 0.74}]}
{"compound": "CCCCCCCCSc1nsc(N=Nc2ccc(N=Nc3ccc(NCc4ccc(C5CCC(CCCC)CC5)cc4)c4ccccc34)cc2)n1", "note": "(stereo not drawn) [Example 18]", "values": [{"measurement": "Solubility L (at room temperature)", "setting": "[1]; [4]", "value": 0.9, "unit": "%"}, {"measurement": "Degree of order S (at room temperature)", "setting": "[2]; [4]", "value": 0.79}]}
{"compound": "CCCCCCCCSc1nsc(N=Nc2cc(C)c(N=Nc3ccc(Nc4ccc(CCCC)cc4)c4ccccc34)cc2C)n1", "note": "[Example 43]", "values": [{"measurement": "Solubility L (at room temperature)", "setting": "[1]; ZLI 2452 (Table 2)", "value": 3.2, "unit": "%"}, {"measurement": "Degree of order S (at room temperature)", "setting": "[2]; ZLI 2452 (Table 2)", "value": 0.71}]}
{"compound": "CCCCCCCCCCCCNc1ccc(N=Nc2cc(C)c(N=Nc3nc(SC)ns3)cc2C)c2ccccc12", "note": "[Example 26]", "values": [{"measurement": "Solubility L (at room temperature)", "setting": "[1]; ZLI 2452 (Table 2)", "value": 1.3, "unit": "%"}, {"measurement": "Degree of order S (at room temperature)", "setting": "[2]; ZLI 2452 (Table 2)", "value": 0.76}]}
{"compound": "CCCCCCCCSc1nsc(N=Nc2cc(C)c(N=Nc3ccc(NCc4ccc(CCCCC)cc4)c4ccccc34)cc2C)n1", "note": "[Example 42]", "values": [{"measurement": "Solubility L (at room temperature)", "setting": "[1]; ZLI 2452 (Table 2)", "value": 0.4, "unit": "%"}, {"measurement": "Degree of order S (at room temperature)", "setting": "[2]; ZLI 2452 (Table 2)", "value": 0.80}]}
{"compound": "CCCCCCCCSc1nsc(N=Nc2cc(C)c(N=Nc3ccc(NCc4ccc(C5CCC(CCCC)CC5)cc4)c4ccccc34)cc2C)n1", "note": "(stereo not drawn) [Example 15]", "values": [{"measurement": "Solubility L (at room temperature)", "setting": "[1]; [4]", "value": 1.4, "unit": "%"}, {"measurement": "Solubility L (at room temperature)", "setting": "[1]; [5]", "value": 2.8, "unit": "%"}, {"measurement": "Solubility L (at room temperature)", "setting": "[1]; [6]", "value": 2.8, "unit": "%"}, {"measurement": "Degree of order S (at room temperature)", "setting": "[2]; [4]", "value": 0.77}, {"measurement": "Degree of order S (at room temperature)", "setting": "[2]; [5]", "value": 0.81}, {"measurement": "Degree of order S (at room temperature)", "setting": "[2]; [6]", "value": 0.74}]}
{"compound": "CCCCCCCCCCCCN(C)c1ccc(N=Nc2cc(C)c(N=Nc3nc(CCCCCCC)ns3)cc2C)c2ccccc12", "note": "[Example 22]", "values": [{"measurement": "Solubility L (at room temperature)", "setting": "[1]; ZLI 2452 (Table 2)", "value": 1.7, "unit": "%"}, {"measurement": "Degree of order S (at room temperature)", "setting": "[2]; ZLI 2452 (Table 2)", "value": 0.77}]}
{"compound": "CCCCCCCCNc1ccc(N=Nc2cc(C)c(N=Nc3nc(SCCCCCCCC)ns3)cc2C)c2ccccc12", "note": "[Example 36]", "values": [{"measurement": "Solubility L (at room temperature)", "setting": "[1]; ZLI 2452 (Table 2)", "value": 0.8, "unit": "%"}, {"measurement": "Degree of order S (at room temperature)", "setting": "[2]; ZLI 2452 (Table 2)", "value": 0.77}]}
{"compound": "CCCCC1CCC(c2ccc(CNc3ccc(N=Nc4ccc(N=Nc5nc(SCC(CC)CCCC)ns5)cc4)c4ccccc34)cc2)CC1", "note": "(stereo not drawn) [Example 44]", "values": [{"measurement": "Solubility L (at room temperature)", "setting": "[1]; ZLI 2452 (Table 2)", "value": 2.6, "unit": "%"}, {"measurement": "Degree of order S (at room temperature)", "setting": "[2]; ZLI 2452 (Table 2)", "value": 0.81}]}
{"compound": "Cc1cc(N=Nc2ccc(N(C)C)cc2C)c(C)cc1N=Nc1nc(SCc2ccccc2)ns1", "note": "[Example 5]", "values": [{"measurement": "Solubility L (at room temperature)", "setting": "[1]; [3]", "value": 0.3, "unit": "%"}, {"measurement": "Degree of order S (at room temperature)", "setting": "[2]; [3]", "value": 0.74}]}
{"compound": "CCCCCCCCSc1nsc(N=Nc2cc(C)c(N=Nc3ccc(N(C)C)cc3C)cc2C)n1", "note": "[Example 8]", "values": [{"measurement": "Solubility L (at room temperature)", "setting": "[1]; [4]", "value": 1.5, "unit": "%"}, {"measurement": "Degree of order S (at room temperature)", "setting": "[2]; [4]", "value": 0.73}, {"measurement": "Degree of order S (at room temperature)", "setting": "[2]; [5]", "value": 0.76}]}
{"compound": "CCCCSc1nsc(N=Nc2cc(C)c(N=Nc3ccc(N(C)C)cc3C)cc2C)n1", "note": "[Example 4]", "values": [{"measurement": "Solubility L (at room temperature)", "setting": "[1]; [3]", "value": 0.9, "unit": "%"}, {"measurement": "Degree of order S (at room temperature)", "setting": "[2]; [3]", "value": 0.73}]}
{"compound": "CCCCCCCCNc1ccc(N=Nc2cc(C)c(N=Nc3nc(SCCCCCCCC)ns3)cc2C)c2ccc(C)nc12", "note": "[Example 19]", "values": [{"measurement": "Solubility L (at room temperature)", "setting": "[1]; ZLI 2452 (Table 2)", "value": 0.6, "unit": "%"}, {"measurement": "Degree of order S (at room temperature)", "setting": "[2]; ZLI 2452 (Table 2)", "value": 0.75}]}
{"compound": "CCCCCCCCSc1nsc(N=Nc2cc(C)c(N=Nc3ccc(NCCc4ccccc4)c4ccccc34)cc2C)n1", "note": "[Example 41]", "values": [{"measurement": "Solubility L (at room temperature)", "setting": "[1]; ZLI 2452 (Table 2)", "value": 0.6, "unit": "%"}, {"measurement": "Degree of order S (at room temperature)", "setting": "[2]; ZLI 2452 (Table 2)", "value": 0.74}]}
{"compound": "CCCCC1CCC(c2ccc(CNc3ccc(N=Nc4cc(C)c(N=Nc5nc(SCC(CC)CCCC)ns5)cc4C)c4ccccc34)cc2)CC1", "note": "(stereo not drawn) [Example 46]", "values": [{"measurement": "Solubility L (at room temperature)", "setting": "[1]; ZLI 2452 (Table 2)", "value": 0.8, "unit": "%"}, {"measurement": "Degree of order S (at room temperature)", "setting": "[2]; ZLI 2452 (Table 2)", "value": 0.80}]}
{"compound": "CCCCCCCCCCCCNc1ccc(N=Nc2cc(C)c(N=Nc3nc(SCCCCCCCCCCCC)ns3)cc2C)c2ccccc12", "note": "[Example 40]", "values": [{"measurement": "Solubility L (at room temperature)", "setting": "[1]; ZLI 2452 (Table 2)", "value": 1.2, "unit": "%"}, {"measurement": "Degree of order S (at room temperature)", "setting": "[2]; ZLI 2452 (Table 2)", "value": 0.77}]}
